Test results published in US20260317324A1, “BIFUNCTIONAL COMPOUNDS FOR DEGRADING BRAF VIA UBIQUITIN PROTEOSOME PATHWAY” (Nurix Therapeutics, Inc., priority 2023, published 2026).

Tests used:
Format in all cases: cell-based
BRAF G469A = biological target: T1, BRAF G469A (Homo sapiens, UniProt P15056, G469A); assay: BRAF HiBiT degradation assay, C-terminal HiBiT-tagged BRAF G469A overexpressed in HCT-116 BRAF−/− cells (clone 34), Nano-Glo HiBiT Lytic assay
T1 construct: Horizon Discovery (HCT-116 BRAF−/− cells); host or cells: HCT-116 BRAF−/− cells, clone 34, lentiviral transduction
From the text: (§1) An A375 cell line expressing a homozygous V600E mutation was purchased from ATCC (Manassas, VA, USA). An A375 clone 1F10 cell line with an endogenous C-terminal HiBiT fusion tag on BRAF V600E allele was generated internally using CRISPR-Cas9 technology and cultured in DMEM, high glucose supplemented with 10% FBS and 1× GlutaMAX. A HCT-116 BRAF−/− cell line overexpressing the C-terminal HiBiT-tagged G466V, G469A, and D594G mutants were generated by lentiviral transduction, externally at Biosettia Inc (San Diego, CA, USA). The stably transfected cells were cultured in RPMI media supplemented with 10% FBS, 1× GlutaMAX, and 0.25 μg/ml puromycin. DMEM medium, RPMI 1640 medium, GlutaMAX, fetal bovine serum (FBS), and puromycin were purchased from Gibco (Grand Island, NY, USA). HCT-116 BRAF−/− cells were purchased from Horizon Discovery (Waterbeach, UK).
(§2) The C-terminal HiBiT tagged mutant BRAF G466V, G469A, and D594G overexpressed in HCT-116 BRAF−/− cells (monoclonal cell line, cell clones 8, 34, and 63, respectively) were seeded at the density of 3,000 cells/well in 30 μL media (RPMI supplemented with 10% FBS and 1× GlutaMAX) in white opaque 384-well plates (Corning #3570) from column 1 to column 23. Wildtype HCT-116 BRAF cells were seeded in column 24 at the same cell density in 30 μL media. Cells were incubated at 37° C. with 5% CO2 for 24 h.
(§3) Intermediate compound dilution series (5-point, ranging from 5 mM to 0.5 μM, 10-fold dilutions in DMSO) were prepared in a source plate (Beckman Coulter cat. no. 001-16128). Final compound dilution series (11-point, ranging from 1 μM to 0.01 nM, half-log dilutions in DMSO) were stamped into the assay plate (Corning #3570, column 1-11 and 12-22) using the Echo Acoustic Liquid Handler (Beckman Coulter). Each compound was plated in duplicate, and the total volume of compound DMSO solution was 60 nL/well (0.2% final DMSO concentration). DMSO was included in wells A23-L23 and A24-L24. The DMSO-treated HiBiT-tagged samples served as Negative Control (NC) and the DMSO-treated wildtype samples served as Background Control (BC) for the HiBiT assay.
(§4) HiBiT signal was measured by a Nano-Glo HiBiT Lytic assay (Promega cat. no. N3050). HiBiT lytic detection reagent (Nano-Glo HiBiT Lytic Buffer with 1:50 Nano-Glo HiBiT Lytic Substrate and 1:100 LgBiT Protein, 40 μL) was added using Bravo. The mixture was incubated at room temperature, in the dark, and with gentle shaking for 10 min. Luminesce units (LU) were read on an EnVision plate reader 2105 (Perkin Elmer).
(§5) Percent protein remaining and viability remaining per sample were calculated as follows: […]
(§6) % Protein remaining values were plotted as a function of compound concentration. XC50 (DC50) values were determined by fitting curves using the following equation:
(§7) For the HiBiT degradation assay, the key parameters reported include: • The dose of compound that produces 50% degradation (DC50 at 50%): • DC50 at 50%: the Fitted X value (Conc.) at Y=50 (response) • Observed Dmax (Obs. Dmax) is the percentage protein degraded at maximal compound effect relative to DMSO-treated control: […]

BRAF G466V = biological target: T2, BRAF G466V (Homo sapiens, UniProt P15056, G466V); assay: BRAF HiBiT degradation assay, C-terminal HiBiT-tagged BRAF G466V overexpressed in HCT-116 BRAF−/− cells (clone 8), Nano-Glo HiBiT Lytic assay
T2 construct: Horizon Discovery (HCT-116 BRAF−/− cells); host or cells: HCT-116 BRAF−/− cells, clone 8, lentiviral transduction
From the text: as §1, §2, §3, §4, §5, §6, §7

BRAF D594G = biological target: T3, BRAF D594G (Homo sapiens, UniProt P15056, D594G); assay: BRAF HiBiT degradation assay, C-terminal HiBiT-tagged BRAF D594G overexpressed in HCT-116 BRAF−/− cells (clone 63), Nano-Glo HiBiT Lytic assay
T3 construct: Horizon Discovery (HCT-116 BRAF−/− cells); host or cells: HCT-116 BRAF−/− cells, clone 63, lentiviral transduction
From the text: as §1, §2, §3, §4, §5, §6, §7

BRAF V600E = biological target: T4, BRAF V600E (Homo sapiens, UniProt P15056, V600E); assay: BRAF HiBiT degradation assay, C-terminal HiBiT-tagged BRAF V600E A375 cells (clone 1F10), Nano-Glo HiBiT Lytic assay; conditions: for Dmax: A-375
T4 construct: endogenous C-terminal HiBiT fusion tag on BRAF V600E allele; endogenous in cells; host or cells: A375 clone 1F10 (CRISPR-Cas9 knock-in of the HiBiT tag; parental A375 from ATCC)
Procedure, shortened: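 Luminescence read-out: Nano-Glo HiBiT lytic reagent with LgBiT, 10 min at room temperature. Signal normalised to DMSO-treated tagged cells, with wildtype A375 as background. Cells are endogenously tagged BRAF V600E A375 clone 1F10. Compounds were tested from 1 μM to 0.01 nM; Dmax is observed % degraded at maximal effect.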

[1] = BRAF G469A (Class 2), HCT-116 BRAF−/− cells, DC50 at 50% degradation
[2] = BRAF G469A (Class 2), HCT-116 BRAF−/− cells, observed Dmax relative to DMSO control
[3] = BRAF G466V (Class 3), HCT-116 BRAF−/− cells, DC50 at 50% degradation
[4] = BRAF G466V (Class 3), HCT-116 BRAF−/− cells, observed Dmax relative to DMSO control
[5] = BRAF D594G (Class 3), HCT-116 BRAF−/− cells, DC50 at 50% degradation
[6] = BRAF D594G (Class 3), HCT-116 BRAF−/− cells, observed Dmax relative to DMSO control
[7] = A375 (BRAF V600E, Class 1), DC50 at 50% degradation
[8] = A375 (BRAF V600E, Class 1), observed Dmax, % protein degraded relative to DMSO control
[9] = Class 2, BRAF G469A, DC50 at 50%: fitted conc. at Y=50
[10] = HCT-116, Class 2, BRAF G469A, percentage protein degraded at maximal compound effect relative to DMSO
[11] = BRAF G466V, DC50 at 50%: fitted conc. at Y=50
[12] = HCT-116, BRAF G466V, percentage protein degraded at maximal compound effect relative to DMSO
[13] = BRAF D594G, DC50 at 50%: fitted conc. at Y=50
[14] = HCT-116, BRAF D594G, percentage protein degraded at maximal compound effect relative to DMSO
[15] = A375 (BRAF V600E), DC50 at 50%: fitted conc. at Y=50
[16] = A375 (BRAF V600E), percentage protein degraded at maximal compound effect relative to DMSO

T3 sequence (P15056 whole entry D594G): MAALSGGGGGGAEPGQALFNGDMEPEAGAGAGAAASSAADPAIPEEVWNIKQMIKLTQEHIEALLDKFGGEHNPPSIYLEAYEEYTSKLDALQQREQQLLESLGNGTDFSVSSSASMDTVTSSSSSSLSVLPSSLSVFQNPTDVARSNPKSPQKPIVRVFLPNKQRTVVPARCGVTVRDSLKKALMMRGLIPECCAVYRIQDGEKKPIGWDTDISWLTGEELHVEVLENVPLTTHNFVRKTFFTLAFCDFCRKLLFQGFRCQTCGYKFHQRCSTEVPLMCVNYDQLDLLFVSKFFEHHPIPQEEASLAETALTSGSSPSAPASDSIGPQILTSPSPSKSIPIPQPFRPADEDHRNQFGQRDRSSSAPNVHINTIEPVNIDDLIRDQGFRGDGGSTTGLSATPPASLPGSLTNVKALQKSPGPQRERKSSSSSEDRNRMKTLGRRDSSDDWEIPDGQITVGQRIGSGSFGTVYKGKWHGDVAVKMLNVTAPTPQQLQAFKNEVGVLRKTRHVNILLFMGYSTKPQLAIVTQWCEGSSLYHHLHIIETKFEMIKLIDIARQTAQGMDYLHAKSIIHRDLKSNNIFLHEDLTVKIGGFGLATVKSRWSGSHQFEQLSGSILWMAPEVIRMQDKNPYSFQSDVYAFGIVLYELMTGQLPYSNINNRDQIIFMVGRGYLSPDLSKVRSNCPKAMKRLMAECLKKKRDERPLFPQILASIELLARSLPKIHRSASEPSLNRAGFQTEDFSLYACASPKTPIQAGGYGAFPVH
T2 sequence (P15056 whole entry G466V): as the sequence (P15056 whole entry D594G) above, with G466V, G594D counted along it
T1 sequence (P15056 whole entry G469A): as the sequence (P15056 whole entry D594G) above, with G469A, G594D counted along it
T4 sequence (P15056 whole entry V600E, the tested form may be a part): as the sequence (P15056 whole entry D594G) above, with G594D, V600E counted along it

| DC50 (BRAF G469A; [1]) [nM] | Dmax (BRAF G469A; [2]) [%] | DC50 (BRAF G466V; [3]) [nM] | Dmax (BRAF G466V; [4]) [%] | DC50 (BRAF D594G; [5]) [nM] | Dmax (BRAF D594G; [6]) [%] | DC50 (BRAF V600E; [7]) [nM] | Dmax (BRAF V600E; [8]) [%] | DC50 (BRAF G469A; [9]) [nM] | Dmax (BRAF G469A; [10]) [%] | DC50 (BRAF G466V; [11]) [nM] | Dmax (BRAF G466V; [12]) [%] | DC50 (BRAF D594G; [13]) [nM] | Dmax (BRAF D594G; [14]) [%] | DC50 (BRAF V600E; [15]) [nM] | Dmax (BRAF V600E; [16]) [%] | SMILES |
| --- | --- | --- | --- | --- | --- | --- | --- | --- | --- | --- | --- | --- | --- | --- | --- | --- |
| 10 to 50 | 30 to 70 | < 10 | > 70 | < 10 | 30 to 70 | < 10 | > 70 | – | – | – | – | – | – | – | – | O=C1CC[C@H](c2ccc(N3CCC(CN4CCN(c5ccc(-n6cc(-c7cc(Cl)cc(NS(=O)(=O)N8CCCC8)c7F)c(-c7ccncc7)n6)c(F)c5)CC4)CC3)cc2)C(=O)N1 [Compound 281, N-{5-chloro-3-[1-(4-{4-[(1-{4-[(3R)-2,6-dioxopiperidin-3-yl]phenyl}piperidin-4-yl)methyl]piperazin-1-yl}-2-fluorophenyl)-3-(pyridin-4-yl)-1H-pyrazol-4-yl]-2-fluorophenyl}pyrrolidine-1-sulfonamide] |
| < 10 | > 70 | < 10 | > 70 | < 10 | > 70 | < 10 | > 70 | – | – | – | – | – | – | – | – | O=C1CC[C@H](c2ccc(N3CCC(CN4CCN(c5ccc(-n6cc(-c7cc(Cl)cc(NS(=O)(=O)N8CCCC8)c7F)c(-c7ccncc7)n6)cc5)CC4)CC3)cc2F)C(=O)N1 [Compound 344, N-{5-chloro-3-[1-(4-{4-[(1-{4-[(3R)-2,6-dioxopiperidin-3-yl]-3-fluorophenyl}piperidin-4-yl)methyl]piperazin-1-yl}phenyl)-3-(pyridin-4-yl)-1H-pyrazol-4-yl]-2-fluorophenyl}pyrrolidine-1-sulfonamide] |
| < 10 | > 70 | < 10 | > 70 | < 10 | > 70 | < 10 | > 70 | – | – | – | – | – | – | – | – | C[C@@H]1CN(c2ccc(-n3cc(-c4cc(Cl)cc(NS(=O)(=O)N5CC[C@@H](F)C5)c4F)c(-c4ccncc4)n3)nc2)CCN1CC1CCN(c2ccc([C@H]3CCC(=O)NC3=O)cc2)CC1 [Compound 320, (3R)—N-[5-chloro-3-(1-{5-[(3R)-4-[(1-{4-[(3R)-2,6-dioxopiperidin-3-yl]phenyl}piperidin-4-yl)methyl]-3-methylpiperazin-1-yl]pyridin-2-yl}-3-(pyridin-4-yl)-1H-pyrazol-4-yl)-2-fluorophenyl]-3-fluoropyrrolidine-1-sulfonamide] |
| 50 to 500 | 30 to 70 | < 10 | > 70 | < 10 | 30 to 70 | 10 to 50 | > 70 | – | – | – | – | – | – | – | – | O=C1CCC(c2ccc(N3CCC(CN4CCN(c5ccc(-n6cc(-c7cc(Cl)cc(NS(=O)(=O)N8CCCC8)c7F)c(-c7ccncc7)n6)cc5)CC4)CC3)c(F)c2F)C(=O)N1 (racemic) [Compound 385, Rac-N-{5-chloro-3-[1-(4-{4-[(1-{4-[(3R)-2,6-dioxopiperidin-3-yl]-2,3-difluorophenyl}piperidin-4-yl)methyl]piperazin-1-yl}phenyl)-3-(pyridin-4-yl)-1H-pyrazol-4-yl]-2-fluorophenyl}pyrrolidine-1-sulfonamide] |

Second part, the molecule before the results:

| SMILES | DC50 (BRAF G469A; [1]) [nM] | Dmax (BRAF G469A; [2]) [%] | DC50 (BRAF G466V; [3]) [nM] | Dmax (BRAF G466V; [4]) [%] | DC50 (BRAF D594G; [5]) [nM] | Dmax (BRAF D594G; [6]) [%] | DC50 (BRAF V600E; [7]) [nM] | Dmax (BRAF V600E; [8]) [%] | DC50 (BRAF G469A; [9]) [nM] | Dmax (BRAF G469A; [10]) [%] | DC50 (BRAF G466V; [11]) [nM] | Dmax (BRAF G466V; [12]) [%] | DC50 (BRAF D594G; [13]) [nM] | Dmax (BRAF D594G; [14]) [%] | DC50 (BRAF V600E; [15]) [nM] | Dmax (BRAF V600E; [16]) [%] |
| --- | --- | --- | --- | --- | --- | --- | --- | --- | --- | --- | --- | --- | --- | --- | --- | --- |
| C[C@@H]1CN(c2ccc(-n3cc(-c4cc(Cl)cc(NS(=O)(=O)N5CC[C@@H](F)C5)c4F)c(-c4ccncc4)n3)nc2)CCN1CC1CCN(c2ccc(C3CCC(=O)NC3=O)cn2)CC1 (mixture of isomers) [Compound 321, (3R)—N-[5-chloro-3-(1-{5-[(3R)-4-[(1-{5-[(3RS)-2,6-dioxopiperidin-3-yl]pyridin-2-yl}piperidin-4-yl)methyl]-3-methylpiperazin-1-yl]pyridin-2-yl}-3-(pyridin-4-yl)-1H-pyrazol-4-yl)-2-fluorophenyl]-3-fluoropyrrolidine-1-sulfonamide] | < 10 | > 70 | < 10 | > 70 | < 10 | > 70 | < 10 | > 70 | – | – | – | – | – | – | – | – |
| CCCS(=O)(=O)Nc1cccc(-c2nc(C(C)(C)C)sc2-c2ccnc(Nc3ccc(N4CCN(CC5CCN(c6ccc(C7CCC(=O)NC7=O)cn6)CC5)CC4)cc3)n2)c1F (racemic) [Compound 47, Rac-N-[3-(2-tert-butyl-5-{2-[(4-{4-[(1-{5-[(3R)-2,6-dioxopiperidin-3-yl]pyridin-2-yl}piperidin-4-yl)methyl]piperazin-1-yl}phenyl)amino]pyrimidin-4-yl}-1,3-thiazol-4-yl)-2-fluorophenyl]propane-1-sulfonamide] | – | – | – | – | – | – | – | – | > 500 | 30 to 70 | < 10 | > 70 | 10 to 50 | 30 to 70 | < 10 | > 70 |
| CCCS(=O)(=O)Nc1cccc(-c2nc(C)sc2-c2ccnc(Nc3ccc(N4CCN(CC5CCN(c6ccc([C@@H]7CCC(=O)NC7=O)cc6)CC5)CC4)cn3)n2)c1F [Compound 61, N-[3-(5-{2-[(5-{4-[(1-{4-[(3S)-2,6-dioxopiperidin-3-yl]phenyl}piperidin-4-yl)methyl]piperazin-1-yl}pyridin-2-yl)amino]pyrimidin-4-yl}-2-methyl-1,3-thiazol-4-yl)-2-fluorophenyl]propane-1-sulfonamide] | – | – | – | – | – | – | – | – | < 10 | 30 to 70 | > 500 | 30 to 70 | > 500 | 30 to 70 | < 10 | > 70 |
